Entries after “also recorded” stand apart in the source; their conditions may differ.
Experiments:
Saccharomyces cerevisiae = assay: agar diffusion-zone of inhibition assay; assay type: cell-based; details: for Zone of Clearing (cm) Yeast: Example 1, 0.5 μg spotted
Bacillus subtilis = assay: agar diffusion-zone of inhibition assay; assay type: cell-based; details: for Zone of Clearing (cm) B. subtilis: Example 1, 0.5 μg spotted
[1] = test system: AtchitIV5 N-glycosylation; assay: Pichia-based protein N-glycosylation assay (SDS-PAGE); assay type: cell-based; details: Example 2, 20 μg/mL, added at methanol induction
B. subtilis strain MW10 = assay: beta-lactam enhancement, broth dilution MIC with resazurin; details: for MIC of the beta-lactam without any tunicamycins or tunicamycin related compounds added: beta-lactam alone
[2] = test system: cell wall teichoic acid (WTA) pathway; details: background, literature; cited from earlier work
[3] = test system: Chinese hamster ovary (CHO) cells; assay: cytotoxicity against mammalian cell line in culture; assay type: cell-based; details: FIG. 8A, 0.5 μg, 1.0 μg, 2.0 μg
From the text: Chinese hamster ovary (CHO) cells are chosen for this experiment because they have been used previously as a model for tunicamycin toxicity. See, e.g., Scocca and Krag, J. Biol. Chem., 265:20621-20626 (1990). A human cell line (MDA-MB-231 triple negative human breast cancer cells) are also used because their known susceptibility to tunicamycin. See, Banerjee, et al., Cancer Res. 71:2095 (2011). The protocols used are described in Duksin & Bornstein, Proc. Natl. Acad. Sci. (U.S.A.), 74:3433-3437 (1977).

Row | Compound | Zone of Clearing (cm) Yeast (Saccharomyces cerevisiae) | Zone of Clearing (cm) B. subtilis (Bacillus subtilis) | toxicity / antimicrobial activity on S. cerevisiae (in words) (Saccharomyces cerevisiae) | antimicrobial activity on Bacillus (in words) (Bacillus subtilis) | further results
1 | CC(=O)NC1C(O)[C@H](O)C(CO)O[C@@H]1OC1O[C@H](C[C@@H](O)C2O[C@@H](n3ccc(=O)[nH]c3=O)[C@H](O)[C@@H]2O)C(O)C(O)[C@H]1N (some centres unmarked) [Compound 1] | 0 cm | 0 cm |  |  | 
2 | CC(=O)NC1C(O)[C@H](O)[C@H](CO)O[C@@H]1O[C@@H]1O[C@H](C[C@@H](O)C2O[C@@H](n3ccc(=O)[nH]c3=O)[C@H](O)[C@@H]2O)C(O)C(O)[C@H]1NC(=O)/C=C/CCCCCCCCCC(C)C (some centres unmarked) [Compound 2] | 2.4 cm | 2.5 cm | same antimicrobial activity as the native tunicamycin | same antimicrobial activity as the native tunicamycin | inhibition of AtchitIV5 N-glycosylation (in words) [1]: same effect as the naturally occurring tunicamycins
3 | CC(=O)NC1C(O)[C@H](O)[C@H](CO)O[C@@H]1O[C@@H]1O[C@H](C[C@@H](O)C2O[C@@H](n3ccc(=O)[nH]c3=O)[C@H](O)[C@@H]2O)C(O)C(O)[C@H]1NC(=O)CCCCCCCCCCCC(C)C (some centres unmarked) [Compound 3] | 0.2 cm | 2.3 cm | considerably less toxic; also recorded: reduced toxicity | comparable response | inhibition of AtchitIV5 N-glycosylation (in words) [1]: less effective inhibitor
4 | CC(C)CCCCCCCCC/C=C/C(=O)N[C@@H]1C(O)C(O)[C@@H](C[C@@H](O)C2O[C@@H](n3ccc(=O)[nH]c3=O)[C@H](O)[C@@H]2O)O[C@H]1O[C@H]1O[C@@H](CO)[C@@H](O)C(O)C1N=[N+]=[N-] (some centres unmarked) [Compound 4] | 0 cm | 1.6 cm | essentially non-toxic; also recorded: reduced toxicity | almost equivalent to the native tunicamycin | 
5 | [N-]=[N+]=NC1C(O)[C@H](O)C(CO)O[C@@H]1OC1O[C@H](C[C@@H](O)C2O[C@@H](n3ccc(=O)[nH]c3=O)[C@H](O)[C@@H]2O)C(O)C(O)[C@H]1N1C(=O)c2ccccc2C1=O (some centres unmarked) [Compound 5] | 0 cm | 0 cm |  |  | 
6 | COc1ccc(O[C@@H]2OC([C@H](O)C[C@H]3OC(O[C@H]4OC(CO)[C@@H](O)C(O)C4NC(C)=O)[C@H](N)C(O)C3O)[C@@H](O)[C@H]2O)cc1 (some centres unmarked) [Compound 6] | 0 cm | 0 cm | no antimicrobial biological activity | no antimicrobial biological activity | 
7 | COc1ccc(O[C@@H]2OC([C@H](O)C[C@H]3O[C@@H](O[C@H]4O[C@@H](CO)[C@@H](O)C(O)C4NC(C)=O)[C@H](NC(=O)/C=C/CCCCCCCCCC(C)C)C(O)C3O)[C@@H](O)[C@H]2O)cc1 (some centres unmarked) [Compound 7] | 0 cm | 0 cm | no antimicrobial biological activity | no antimicrobial biological activity | 
8 | CC(=O)NC1C(O)[C@H](O)C(CO)O[C@@H]1OC1O[C@H](C[C@@H](O)C2O[C@@H](n3ccc(=O)[nH]c3=O)[C@H](O)[C@@H]2O)C(O)C(O)[C@H]1NC(C)=O (some centres unmarked) [Compound 9] | 0 cm | 0 cm |  |  | 
9 | CC(=O)NC1C(O)[C@H](O)[C@H](CO)O[C@@H]1O[C@@H]1O[C@H](C[C@@H](O)C2O[C@@H](n3cnc4c(N)ncnc43)[C@H](O)[C@@H]2O)C(O)C(O)[C@H]1NC(=O)/C=C/CCCCCCCCCC(C)C (some centres unmarked) [Compound 10] | 0 cm | 0 cm | no antimicrobial biological activity | no antimicrobial biological activity | 
10 | COc1cccc(OC)c1C(=O)N[C@@H]1C(=O)N2[C@@H]1SC(C)(C)[C@@H]2C(=O)O [methicillin] |  |  |  |  | MIC of the beta-lactam without any tunicamycins or tunicamycin related compounds added (B. subtilis strain MW10): 0.125 µg/mL
11 | Cc1onc(-c2ccccc2)c1C(=O)N[C@@H]1C(=O)N2[C@@H]1SC(C)(C)[C@@H]2C(=O)O [oxacillin] |  |  |  |  | MIC (B. subtilis strain MW10; Bacillus subtilis, MW10, read-out: MIC of oxacillin only): 0.125 µg/mL; MIC of the beta-lactam without any tunicamycins or tunicamycin related compounds added (B. subtilis strain MW10): 0.25 µg/mL
12 | CC1(C)S[C@@H]2[C@H](NC(=O)Cc3ccccc3)C(=O)N2[C@H]1C(=O)O [penicillin G] |  |  |  |  | MIC of the beta-lactam without any tunicamycins or tunicamycin related compounds added (B. subtilis strain MW10): 0.025 µg/mL
13 | C[C@H]1[C@@H](c2cc(C(F)(F)F)cc(C(F)(F)F)c2)OC(=O)N1C(=O)CCc1cncc2ccccc12 [tarocin A1] |  |  |  |  | depletion of the cell wall teichoic acid polymer (in words) [2]: complete depletion
14 | quinovosamycin |  |  |  |  | toxicity to CHO cells (in words) [3]: toxic

— US10513533B2, “Tunicamycin related compounds with anti-bacterial activity” (priority 2017, dated 2019)
